From patent US11135186B2, “Regulators of the endoplasmic reticulum proteostasis network” (The Scripps Research Institute, priority 2015, dated 2021)

Experiments:
[1] = tested on: HEK293T-Rex cells; experiment: mRNA-Seq transcriptional profiling and geneset analysis in HEK293T-Rex cells; format: cell-based, human; details: for activation of the ATF6 geneset relative to Tg: mRNA-seq geneset analysis; for BiP mRNA-Seq fold change (relative to Vh) / GRP94 mRNA-Seq fold change (relative to Vh) / SEL1L mRNA-Seq fold change (relative to Vh): ATF6-selective gene; for BiP mRNA-Seq fold change (relative to Vh) / GRP94 mRNA-Seq fold change (relative to Vh) / SEL1L mRNA-Seq fold change (relative to Vh) / DNAJB1 mRNA-Seq fold change (relative to Vh) / HSPA1A mRNA-Seq fold change (relative to Vh) / HSPA8 mRNA-Seq fold change (relative to Vh) / ASNS mRNA-Seq fold change (relative to Vh) / DDIT3 (CHOP) mRNA-Seq fold change (relative to Vh) / TrIB3 mRNA-Seq fold change (relative to Vh) / ERdj3 mRNA-Seq fold change (relative to Vh) / HYOU1 mRNA-Seq fold change (relative to Vh) / p58IPK mRNA-Seq fold change (relative to Vh) / DNAJC10 mRNA-Seq fold change (relative to Vh) / HSPA13 mRNA-Seq fold change (relative to Vh) / SEC24D mRNA-Seq fold change (relative to Vh): compounds 10 μM, Tg 1 μM; for DNAJB1 mRNA-Seq fold change (relative to Vh) / HSPA1A mRNA-Seq fold change (relative to Vh) / HSPA8 mRNA-Seq fold change (relative to Vh): HSF1 target gene; for ASNS mRNA-Seq fold change (relative to Vh) / DDIT3 (CHOP) mRNA-Seq fold change (relative to Vh) / TrIB3 mRNA-Seq fold change (relative to Vh): PERK target gene; for ERdj3 mRNA-Seq fold change (relative to Vh) / HYOU1 mRNA-Seq fold change (relative to Vh) / p58IPK mRNA-Seq fold change (relative to Vh): XBP1s- or ATF6-target gene; for DNAJC10 mRNA-Seq fold change (relative to Vh) / HSPA13 mRNA-Seq fold change (relative to Vh) / SEC24D mRNA-Seq fold change (relative to Vh): XBP1s-selective gene
Description: HEK293T-Rex and HEK293^DAX cells in 12-well plates were treated for 6 h with vehicle, 1 μM Tg, 10 μM TMP (in HEK293^DAX), or 10 μM 132, 147 or 263 in biological triplicate at 37° C. Cells were harvested, and RNA was extracted using the RNeasy Mini Kit (Qiagen). Total RNA was quantified using NanoDrop (ND-1000). Samples were run on the Illuina HiSeq system.
Single end, 100 bp-long reads from RNA-Seq experiments were aligned to the GRCh37.p13 human genome reference assembly using SeqMan NGen 11.2.1 (DNAStar, Inc.). The assembly data were then imported into ArrayStar with QSeq (DNAStar, Inc.) to quantify the gene expression levels. The sequence counts were normalized to reads per kilobase per million (RPKM) after filtering out non-mRNA sequence features. The statistical significance of the difference between the expression levels of a gene under different conditions was assessed using a Student's t-test with the Benjamini-Hochberg multiple testing correction.
ATF6- and XBP1s-selective target genes were identified from transcriptional profiles of HEK293D^X cells following stress-independent activation of TMP-dependent DHFR-ATF6 and/or tetracycline inducible XBP1s, as previously described^4. PERK-selective target genes were identified from^8. Only ATF6-, XBP1s- or PERK-selective genes induced >1.5 fold in Tg-treated samples were used in this analysis. The log transformed fold-increase of these target genes in HEK293T-Rex cells treated with the respective ER proteostasis regulators were then normalized to the log transformed fold increase of these genes induced by Tg treatment. The plots shown in FIG. 5b-e were prepared as box and whisker plots using Kaleidograph. Differential activation of the ATF6, XBP1s, and PERK genesets was assessed by one-way ANOVA and significance of pairwise comparison confirmed by unpaired t-test. An analogous strategy was employed to prepare the heat map using transcriptional data from the MGE analysis.

[2] = tested on: HepG2 cells; experiment: HepG2 viability (CellTiter-Glo); format: cell-based
Description: HepG2 cells were plated at 5,000 cells/well in a translucent, flat-bottomed 96 well plate, and treated for 48 hr with vehicle, 10 μM Tg or 10 μM ER proteostasis regulator. ALMC-2 or KAS-6/1 cells were plated at 33,000 cells/well in 96-well plates then treated with proteostasis regulators for 16 h as described. Cell metabolic activity was measured using the CellTiter-Glo assay (Promega), which reports on intracellular ATP concentration. CellTiter-Glo reagent was added to cell culture media at a 1:1 ratio and incubated for 2 minutes on an orbital shaker to induce cell lysis. The plate was then incubated at room temperature for 10 minutes to stabilize the luminescent signal and read on a Tecan F200 Pro microplate reader.

[3] = tested on: BiP expression in HepG2 cells; experiment: BiP qPCR in HepG2 cells; format: cell-based
Description: (§1) Cells were treated as described at 37° C., washed with Dulbecco's phosphate-buffered saline (Gibco), and then RNA was extracted using the RNeasy Mini Kit (Qiagen). qPCR reactions were performed on cDNA prepared from 500 ng of total cellular RNA using the QuantiTect Reverse Transcription Kit (Qiagen). The FastStart Universal SYBR Green Master Mix (Roche), cDNA, and appropriate human primers^4 or mouse primers (BiP; […] (SEQ ID NO: 5) and […] (SEQ ID NO: 6) purchased from Integrated DNA Technologies were used for amplifications (45 cycles of 1 min at 95° C., 10 s at 95° C., 30 sec at 60° C.) in an ABI 7900HT Fast Real Time PCR machine. Primer integrity was assessed by a thermal melt to confirm homogeneity and the absence of primer dimers. Transcripts were normalized to the housekeeping gene Rplp2 and all measurements were performed in triplicate. Data were analyzed using the RQ Manager and DataAssist 2.0 softwares (ABI).

[4] = tested on: ^FTTTR^A25T; experiment: [35S] metabolic labeling, secretion of flag-tagged TTR^A25T from HepG2^ATF6 cells; format: cell-based; details: 15 h pretreatment, 4 h chase; for degradation of ^FTTTR^A25T / reduction of ^FTTTR^A25T secretion: 10 μM
Description: (§2) HepG2 cells or HEK293T cells plated on poly-D-lysine coated plates were metabolically labeled in DMEM-Cys/-Met (CellGro) supplemented with glutamine, penicillin/streptomycin, dialyzed fetal bovine serum, and EasyTag EXPRESS^35S Protein Labeling Mix (Perkin Elmer) for 30 min. Cells were washed twice with complete media and incubated in prewarmed DMEM for the indicated times. Media or lysates were harvested at the indicated times. Lysates were prepared in RIPA buffer with fresh protease inhibitor cocktail (Roche). FLAG tagged TTR variants or ALLC were immunopurified using M1 anti-FLAG agarose beads (Sigma-Aldrich) and washed three times with RIPA buffer. The immunoisolates were then eluted by boiling in Laemmli buffer and separated on SDS-PAGE. For total secreted media, 15 uL aliquots from media incubated for 4 hrs on pulsed cells were run on a SDS-PAGE. The gels were then dried, exposed to phosphorimager plates (GE Healthcare), and imaged with a Typhoon imager. Band intensities were quantified by densitometry in ImageQuant. Fraction secreted was calculated using the equation: fraction secreted=[extracellular [^35S]-LC signal at t=t/(extracellular [^35S]-LC signal at t=0+intracellular [^35S]-LC signal at t=0)]. Fraction remaining was calculated using the equation: [(extracellular [^35S]-LC signal at t=t+intracellular [^35S]-LC signal at t=t)/(extracellular [^35S]-LC signal at t=0+ intracellular [^35S]-LC signal at t=0)].

[5] = tested on: ^FTTTR^WT; experiment: [35S] metabolic labeling, secretion of flag-tagged TTR^WT from HepG2^ATF6 cells; format: cell-based; details: 15 h pretreatment, 10 μM compound or 1 μM Tg, 4 h chase
Description: as §2

[6] = tested on: endogenous secretory proteome of HepG2^ATF6 cells; experiment: [35S] metabolic labeling, total secreted protein from HepG2^ATF6 cells; format: cell-based; details: 15 h pretreatment, 10 μM compound or 1 μM Tg, 4 h chase
Description: as §2

[7] = tested on: BiP expression in ALMC-2 cells; experiment: BiP qPCR in ALMC-2 cells; format: cell-based, human; details: 10 μM, 6 h
Description: as §1

[8] = tested on: BiP expression; experiment: BiP qPCR 24 h timecourse; format: cell-based
Description: as §1

| SMILES | activation of the ATF6 geneset relative to Tg ([1]; 10 μM) [%] | BiP mRNA-Seq fold change (relative to Vh) ([1]; 6 h) [fold] | GRP94 mRNA-Seq fold change (relative to Vh) ([1]; 6 h) [fold] | SEL1L mRNA-Seq fold change (relative to Vh) ([1]; 6 h) [fold] | DNAJB1 mRNA-Seq fold change (relative to Vh) ([1]; 6 h) [fold] | HSPA1A mRNA-Seq fold change (relative to Vh) ([1]; 6 h) [fold] | HSPA8 mRNA-Seq fold change (relative to Vh) ([1]; 6 h) [fold] | ASNS mRNA-Seq fold change (relative to Vh) ([1]; 6 h) [fold] | DDIT3 (CHOP) mRNA-Seq fold change (relative to Vh) ([1]; 6 h) [fold] | TrIB3 mRNA-Seq fold change (relative to Vh) ([1]; 6 h) [fold] | ERdj3 mRNA-Seq fold change (relative to Vh) ([1]; 6 h) [fold] | HYOU1 mRNA-Seq fold change (relative to Vh) ([1]; 6 h) [fold] | p58IPK mRNA-Seq fold change (relative to Vh) ([1]; 6 h) [fold] | DNAJC10 mRNA-Seq fold change (relative to Vh) ([1]; 6 h) [fold] | HSPA13 mRNA-Seq fold change (relative to Vh) ([1]; 6 h) [fold] | SEC24D mRNA-Seq fold change (relative to Vh) ([1]; 6 h) [fold] | HepG2 viability ([2]; 10 μM) | HepG2 viability ([2]; 100 μM) | expression of the ATF6-target gene BiP in HepG2 cells [3] | degradation of ^FTTTR^A25T [4] | other results |
| --- | --- | --- | --- | --- | --- | --- | --- | --- | --- | --- | --- | --- | --- | --- | --- | --- | --- | --- | --- | --- | --- |
| Cc1ccc(O)c(N/C=C/C(=O)c2ccc(F)cc2)c1 [Compound 132] | 75 | 9.1 | 3.5 | 4.9 | 3.0 | 9.3 | 1.5 | 2.7 | 10.6 | 5.8 | 2.9 | 3.6 | 3.7 | 1.4 | 2.6 | 3.1 | do not significantly influence | reduce | induced | did not significantly influence | slope of log2 mRNA fold change with compound versus with Tg ([1]; 10 μM, 6 h, ER proteostasis genes): 1; ^FTTTR^A25T secretion (in words) ([4]; 10 μM compound or 1 μM Tg): did not significantly influence; ^FTTTR^WT secretion (in words) [5]: did not significantly influence; accumulation of [35S]-labeled protein in media (total secreted proteome) [6]: did not influence; expression of the ATF6 target gene BiP in ALMC-2 cells [7]: induced; time of maximal BiP induction [8]: 6 h |
| Cc1ccc(O)c(NC(=O)CCc2ccccc2)c1 [Compound 147] | 45 | 3.3 | 1.8 | 2.2 | 1.6 | 3.2 | 1.3 | 1.0 | 1.7 | 1.0 | 1.7 | 1.8 | 1.8 | 1.1 | 1.2 | 1.4 | do not significantly influence | reduce | induced | increased degradation | reduction of ^FTTTR^A25T secretion [4]: 45%; ^FTTTR^WT secretion (in words) [5]: did not significantly influence; accumulation of [35S]-labeled protein in media (total secreted proteome) [6]: did not influence; expression of the ATF6 target gene BiP in ALMC-2 cells [7]: induced; time of maximal BiP induction [8]: 6 h |
| O=[N+]([O-])c1ccc(N/N=C/c2ccccc2O)cc1 [Compound 263] | 50 | 5.7 | 2.5 | 2.7 | 1.4 | 2.5 | 1.3 | 1.5 | 2.0 | 1.3 | 2.4 | 2.7 | 2.9 | 1.3 | 1.7 | 2.1 | do not significantly influence | reduce | induced | increased degradation | reduction of ^FTTTR^A25T secretion [4]: 45%; ^FTTTR^WT secretion (in words) [5]: did not significantly influence; accumulation of [35S]-labeled protein in media (total secreted proteome) [6]: did not influence; expression of the ATF6 target gene BiP in ALMC-2 cells [7]: does not significantly induce; time of maximal BiP induction [8]: 6 h |
